One block for each compound: values may come before it. Calls of active or inactive are those of the source. No cut-off for these calls is given here.
What was measured:
[1] = tested on: MDA-MB-231; experiment: Antitumor activity against human MDA-MB-231 cells xenografted in BALB/c nude mouse model assessed as reduction in tumor volume at 15 to 30 mg/kg, ip administered daily for 18 days by vernier caliper method; type: functional, organism-based; conditions: dose 15-30 mg/kg, time 18.0 day
[2] = Toxicity in BALB/c nude mouse assessed as change in ALT level in liver serum at 15 to 30 mg/kg, ip administered daily for 18 days; type: organism-based; conditions: in vivo, 432 h, dose 15-30 mg/kg, time 18 day
[3] = tested on: MCF7; experiment: cells; conditions: Homo sapiens, MCF7, 48 h
Description: Antiproliferative activity against human MCF7 cells assessed as inhibition of cell growth measured after 48 hrs by CCK-8 method

[4] = tested on: MDA-MB-231; experiment: Antitumor activity against human MDA-MB-231 cells xenografted in BALB/c nude mouse model assessed as reduction in tumor weight at 15 to 30 mg/kg, ip administered daily for 18 days by vernier caliper method; type: functional, organism-based; conditions: dose 15-30 mg/kg, time 18.0 day
[5] = tested on: MDA-MB-231; experiment: Induction of apoptosis in human MDA-MB-231 cells assessed as early apoptotic cells at 4 uM incubated for 24 hrs by Annexin V-FITC/PI staining based flow cytometry analysis (reference value: 5.40%); type: functional
[6] = Antiproliferative activity against human MCF-10A cells assessed as inhibition of cell growth measured after 48 hrs by CCK-8 method; type: toxicity, cell-based
[7] = tested on: MDA-MB-231; experiment: Antiproliferative activity against human MDA-MB-231 cells assessed as reduction in number of cells in S phase at 1 to 4 uM measured after 48 hrs by EdU incorporation assay; type: functional, cell-based; conditions: dose 1-4 µM
[8] = tested on: MDA-MB-231; experiment: Induction of apoptosis in human MDA-MB-231 cells assessed as necrotic cells at 8 uM incubated for 24 hrs by Annexin V-FITC/PI staining based flow cytometry analysis (reference value: 0.033%); type: functional
[9] = tested on: MDA-MB-231; experiment: Antitumor activity against human MDA-MB-231 cells xenografted in BALB/c nude mouse model assessed as reduction in tumor growth at 15 mg/kg, ip administered daily for 18 days by vernier caliper method relative to control; type: functional; set-up: scale not given: the % may be the effect or the level left; conditions: time 18 day
[10] = tested on: MDA-MB-231; experiment: Induction of apoptosis in human MDA-MB-231 cells assessed as early apoptotic cells at 8 uM incubated for 24 hrs by Annexin V-FITC/PI staining based flow cytometry analysis (reference value: 5.40%); type: functional
[11] = Toxicity in BALB/c nude mouse assessed as effect on kidney at 15 to 30 mg/kg, ip measured after 18 days; type: organism-based; conditions: in vivo, 432 h, dose 15-30 mg/kg, time 18 day
[12] = tested on: MDA-MB-231; experiment: Induction of DNA damage in human MDA-MB-231 cells assessed as increase in gamma-H2AX expression at 1 to 4 uM incubated for 24 hrs by Western blot analysis; type: functional, cell-based; conditions: dose 1-4 µM
[13] = tested on: MDA-MB-231; experiment: Induction of cell cycle arrest in human MDA-MB-231 cells assessed as increase in accumulation of cells at G2/M phase at 8 uM measured after 24 hrs by PI staining based flow cytometry analysis (reference value: 26.38%); type: functional
[14] = tested on: MDA-MB-231; experiment: Induction of cell cycle arrest in human MDA-MB-231 cells assessed as increase in accumulation of cells at G2/M phase at 2 uM measured after 24 hrs by PI staining based flow cytometry analysis (reference value: 26.38%); type: functional
[15] = tested on: MDA-MB-231; experiment: Induction of apoptosis in human MDA-MB-231 cells assessed as early apoptotic cells at 2 uM incubated for 24 hrs by Annexin V-FITC/PI staining based flow cytometry analysis (reference value: 5.40%); type: functional
[16] = tested on: MDA-MB-231; experiment: Induction of apoptosis in human MDA-MB-231 cells assessed as increase in cleaved PARP expression at 2 to 4 uM measured after 12 hrs by Western blot analysis; type: functional, cell-based; conditions: dose 2-4 µM
[17] = Toxicity in BALB/c nude mouse assessed as effect on body weight at 15 to 30 mg/kg, ip administered daily for 18 days; type: organism-based; conditions: in vivo, 432 h, dose 15-30 mg/kg, time 18 day
[18] = Toxicity in BALB/c nude mouse assessed as change in CK level in heart serum at 15 to 30 mg/kg, ip administered daily for 18 days; type: organism-based; conditions: in vivo, 432 h, dose 15-30 mg/kg, time 18 day
[19] = tested on: MDA-MB-231; experiment: Induction of cell cycle arrest in human MDA-MB-231 cells assessed as upregulation of phosphorylated histone H3 level at 2 to 4 uM measured after 12 hrs by Western blot analysis; type: functional, cell-based; conditions: dose 2-4 µM
[20] = tested on: MDA-MB-231; experiment: Induction of DNA damage in human MDA-MB-231 cells assessed as increase in gamma-H2AX fluorescence intensity at 1 to 4 uM incubated for 48 hrs by immunofluorescence staining based analysis; type: functional, cell-based; conditions: dose 1-4 µM
[21] = tested on: MDA-MB-231; experiment: Antitumor activity against human MDA-MB-231 cells xenografted in BALB/c nude mouse model assessed as reduction in tumor growth at 30 mg/kg, ip administered daily for 18 days by vernier caliper method relative to control; type: functional; set-up: scale not given: the % may be the effect or the level left; conditions: time 18 day
[22] = tested on: MDA-MB-231; experiment: Induction of apoptosis in human MDA-MB-231 cells assessed as viable cells at 8 uM incubated for 24 hrs by Annexin V-FITC/PI staining based flow cytometry analysis (reference value: 94.1%); type: functional; conditions: read-out: Activity
[23] = tested on: MDA-MB-231; experiment: Induction of apoptosis in human MDA-MB-231 cells assessed as late apoptotic cells at 2 uM incubated for 24 hrs by Annexin V-FITC/PI staining based flow cytometry analysis (reference value: 0.46%); type: functional
[24] = tested on: MDA-MB-231; experiment: Induction of apoptosis in human MDA-MB-231 cells assessed as viable cells at 2 uM incubated for 24 hrs by Annexin V-FITC/PI staining based flow cytometry analysis (reference value: 94.1%); type: functional; conditions: read-out: Activity
[25] = Antiproliferative activity against rat H9c2 cells assessed as inhibition of cell growth measured after 48 hrs by CCK-8 method; type: toxicity, cell-based
[26] = Toxicity in BALB/c nude mouse assessed as effect on heart at 15 to 30 mg/kg, ip measured after 18 days; type: organism-based; conditions: in vivo, 432 h, dose 15-30 mg/kg, time 18 day
[27] = tested on: MDA-MB-231; experiment: Induction of apoptosis in human MDA-MB-231 cells assessed as viable cells at 4 uM incubated for 24 hrs by Annexin V-FITC/PI staining based flow cytometry analysis (reference value: 94.1%); type: functional; conditions: read-out: Activity
[28] = tested on: MDA-MB-231; experiment: Induction of apoptosis in human MDA-MB-231 cells assessed as late apoptotic cells at 8 uM incubated for 24 hrs by Annexin V-FITC/PI staining based flow cytometry analysis (reference value: 0.46%); type: functional
[29] = tested on: MDA-MB-231; experiment: Induction of cell cycle arrest in human MDA-MB-231 cells assessed as increase in accumulation of cells at G2/M phase at 4 uM measured after 24 hrs by PI staining based flow cytometry analysis (reference value: 26.38%); type: functional
[30] = tested on: MDA-MB-231; experiment: Induction of apoptosis in human MDA-MB-231 cells assessed as necrotic cells at 2 uM incubated for 24 hrs by Annexin V-FITC/PI staining based flow cytometry analysis (reference value: 0.033%); type: functional
[31] = Toxicity in BALB/c nude mouse assessed as change in AST level in liver serum at 15 to 30 mg/kg, ip administered daily for 18 days; type: organism-based; conditions: in vivo, 432 h, dose 15-30 mg/kg, time 18 day
[32] = Toxicity in BALB/c nude mouse assessed as change in CREA level in kidney serum at 15 to 30 mg/kg, ip administered daily for 18 days; type: organism-based; conditions: in vivo, 432 h, dose 15-30 mg/kg, time 18 day
[33] = Toxicity in BALB/c nude mouse assessed as change in BUN level in kidney serum at 15 to 30 mg/kg, ip administered daily for 18 days; type: organism-based; conditions: in vivo, 432 h, dose 15-30 mg/kg, time 18 day
[34] = Antiproliferative activity against human HK-2 cells assessed as inhibition of cell growth measured after 48 hrs by CCK-8 method; type: toxicity, cell-based
[35] = tested on: MDA-MB-231; experiment: Induction of apoptosis in human MDA-MB-231 cells assessed as necrotic cells at 4 uM incubated for 24 hrs by Annexin V-FITC/PI staining based flow cytometry analysis (reference value: 0.033%); type: functional
[36] = tested on: MDA-MB-231; experiment: cells; conditions: Homo sapiens, MDA-MB-231, 48 h
Description: Antiproliferative activity against human MDA-MB-231 cells assessed as inhibition of cell growth measured after 48 hrs by CCK-8 method

[37] = tested on: MDA-MB-231; experiment: Induction of apoptosis in human MDA-MB-231 cells assessed as late apoptotic cells at 4 uM incubated for 24 hrs by Annexin V-FITC/PI staining based flow cytometry analysis (reference value: 0.46%); type: functional
[38] = Toxicity in BALB/c nude mouse assessed as change in LDH level in heart serum at 15 to 30 mg/kg, ip administered daily for 18 days; type: organism-based; conditions: in vivo, 432 h, dose 15-30 mg/kg, time 18 day
[39] = Toxicity in BALB/c nude mouse assessed as effect on liver at 15 to 30 mg/kg, ip measured after 18 days; type: organism-based; conditions: in vivo, 432 h, dose 15-30 mg/kg, time 18 day
[40] = tested on: MDA-MB-436; experiment: cells; conditions: Homo sapiens, MDA-MB-436, 48 h
Description: Antiproliferative activity against human MDA-MB-436 cells assessed as inhibition of cell growth measured after 48 hrs by CCK-8 method

[41] = tested on: HeLa; experiment: Antiproliferative activity against human HeLa cells measured after 48 hrs by CCK-8 method
[42] = tested on: MDA-MB-435; experiment: Antiproliferative activity against human MDA-MB-435 cells measured after 3 days by CCK-8 method; conditions: MDA-MB-435, 72 h
[43] = tested on: MDA-MB-231; experiment: Antiproliferative activity against human MDA-MB-231 cells measured after 3 days by CCK-8 method; conditions: MDA-MB-231, 72 h

IC50 [3]: 13.8 µM
IC50 [36]: 3.28 µM
IC50 [40]: 3.86 µM
Compound: O=C(NC(Nc1nc(Cl)cc(Nc2ccc(C(F)(F)F)cc2)n1)C(Cl)(Cl)Cl)OCCNC(=O)c1cnc(C(F)(F)F)s1 (stereo not drawn)
Activity [1]: Active
Activity [2]: Non-toxic
Activity [4]: Active
Activity [5]: 13.4%
IC50 at 48 h [6]: 23.9 µM
Activity [7]: Active
Activity [8]: 1.1%
Activity [9]: 86%
Activity [10]: 38.8%
Activity [11]: Non-toxic
Activity [12]: Active
Activity [13]: 54.71%
Activity [14]: 26.89%
Activity [15]: 7.46%
Activity [16]: Active
Activity [17]: Non-toxic
Activity [18]: Non-toxic
Activity [19]: Active
Activity [20]: Active
Activity [21]: 90%
viability at 8 µM [22]: 52.4%
Activity [23]: 0.26%
viability at 2 µM [24]: 91.7%
IC50 at 48 h [25]: 19.4 µM
Activity [26]: Non-toxic
viability at 4 µM [27]: 85.4%
Activity [28]: 7.61%
Activity [29]: 34.91%
Activity [30]: 0.01%
Activity [31]: Non-toxic
Activity [32]: Non-toxic
Activity [33]: Non-toxic
IC50 at 48 h [34]: 23.4 µM
Activity [35]: 0.62%
Activity [37]: 0.62%
Activity [38]: Non-toxic
Activity [39]: Non-toxic

IC50 [41]: 0.06 µM
Compound: Nc1nc(F)nc2c1ncn2C(NC(=O)NCCN1CCOCC1)C(Cl)(Cl)Cl (stereo not drawn)

IC50 [42]: 2 µM
IC50 [43]: 2.6 µM
Compound: Cc1ncsc1-c1ccc(CNC(=O)[C@@H]2C[C@@H](O)CN2C(=O)[C@@H](NC(=O)CCOCCOCCOCCOCCOCCC(=O)NCCCOC(=O)NC(Nc2ncccn2)C(Cl)(Cl)Cl)C(C)(C)C)cc1 (stereo partly drawn)
